These results are taken from patent publication US12077503B2, “Substituted cyclic amides and their use as herbicides” (FMC CORPORATION, priority 2015, dated 2024).

Common to all, as to assay type: in vivo
In one test the test system is Kochia (Kochia scoparia). The experiment in a line: Test A preemergence. The note with it: Bassia scoparia, pre-emergence, 240 h; for pest or weed control at 125 g/ha: 125 g ai/ha, preemergence, 0 to 100 scale where 0 is no effect and 100 is complete control, read-out: Kochia plant response rating; for pest or weed control at 500 g/ha: 500 g ai/ha, Preemergence, visual injury vs untreated controls after approximately 10 d, read-out: Kochia plant response rating (0 to 100 scale where 0 is no effect and 100 is complete control). Summed up: (§1)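 Seeds sprayed preemergence with a directed soil spray, or plants at 2 to 10 cm height and one- to two-leaf stage sprayed postemergence, with test chemicals in a non-phytotoxic solvent mixture containing surfactant, in loam soil–sand blend. Injury rated visually against untreated controls after about 10 d in greenhouse, 0 (no effect) to 100 (complete control).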

The subject of test [1] is barnyardgrass (Echinochloa crus-galli). Briefly: Test A preemergence. The note with it: Echinochloa crus-galli, pre-emergence, 240 h; for pest or weed control at 125 g/ha: 125 g ai/ha, preemergence, 0 to 100 scale where 0 is no effect and 100 is complete control, read-out: Barnyardgrass plant response rating; for pest or weed control at 500 g/ha: 500 g ai/ha, Preemergence, visual injury vs untreated controls after approximately 10 d, read-out: Barnyardgrass plant response rating (0 to 100 scale where 0 is no effect and 100 is complete control). Summed up:
as §1

Test [2] concerns giant foxtail (Setaria faberii). The experiment in a line: Test A preemergence. The conditions noted are these: Setaria faberi, pre-emergence, 240 h; for pest or weed control at 125 g/ha: 125 g ai/ha, preemergence, 0 to 100 scale where 0 is no effect and 100 is complete control, read-out: Foxtail, Giant plant response rating; for pest or weed control at 500 g/ha: 500 g ai/ha, Preemergence, visual injury vs untreated controls after approximately 10 d, read-out: Foxtail, Giant plant response rating (0 to 100 scale where 0 is no effect and 100 is complete control). Summed up: as §1

The subject of test [3] is pigweed (Amaranthus retroflexus). The experiment in a line: Test A preemergence. The conditions noted are these: Amaranthus retroflexus, pre-emergence, 240 h; for pest or weed control at 125 g/ha: 125 g ai/ha, preemergence, 0 to 100 scale where 0 is no effect and 100 is complete control, read-out: Pigweed plant response rating; for pest or weed control at 500 g/ha: 500 g ai/ha, Preemergence, visual injury vs untreated controls after approximately 10 d, read-out: Pigweed plant response rating (0 to 100 scale where 0 is no effect and 100 is complete control).

In test [4] the test system is ragweed (common ragweed, Ambrosia elatior). Briefly: Test A preemergence. The note with it: Ambrosia artemisiifolia, pre-emergence, 240 h; for pest or weed control at 125 g/ha: 125 g ai/ha, preemergence, 0 to 100 scale where 0 is no effect and 100 is complete control, read-out: Ragweed plant response rating; for pest or weed control at 500 g/ha: 500 g ai/ha, Preemergence, visual injury vs untreated controls after approximately 10 d, read-out: Ragweed plant response rating (0 to 100 scale where 0 is no effect and 100 is complete control). Summed up: as §1

For test [5], the system named is ryegrass, Italian (Italian ryegrass, Lolium multiflorum). Briefly: Test A preemergence. The note with it: Lolium multiflorum, pre-emergence, 240 h; for pest or weed control at 125 g/ha: 125 g ai/ha, preemergence, 0 to 100 scale where 0 is no effect and 100 is complete control, read-out: Ryegrass, Italian plant response rating; for pest or weed control at 500 g/ha: 500 g ai/ha, Preemergence, visual injury vs untreated controls after approximately 10 d, read-out: Ryegrass, Italian plant response rating (0 to 100 scale where 0 is no effect and 100 is complete control). Summed up:
as §1

Test [6] concerns Galium (catchweed bedstraw, Galium aparine). The experiment in a line: Test A postemergence. The conditions noted are these: Galium, post-emergence, 240 h, 125 g ai/ha, postemergence, visual injury rating after approximately 10 d; read-out: Galium plant response rating (0 to 100 scale, 0 no effect, 100 complete control). Summed up: as §1
In test [7] the test system is barnyardgrass (Echinochloa crus-galli). The experiment in a line: Test A postemergence. The conditions noted are these: Echinochloa crus-galli, post-emergence, 240 h, 125 g ai/ha, postemergence, visual injury rating after approximately 10 d; read-out: Barnyardgrass plant response rating (0 to 100 scale, 0 no effect, 100 complete control). Summed up:
as §1

The subject of test [8] is blackgrass (Alopecurus myosuroides). The experiment in a line: Test A postemergence. The conditions noted are these: Alopecurus myosuroides, post-emergence, 240 h, 125 g ai/ha, postemergence, visual injury rating after approximately 10 d; read-out: Blackgrass plant response rating (0 to 100 scale, 0 no effect, 100 complete control). Summed up: as §1
A further test has as its system corn (Zea mays). Briefly: Test A postemergence. The conditions noted are these: Zea mays, post-emergence, 240 h, 125 g ai/ha, postemergence, visual injury rating after approximately 10 d; read-out: Corn plant response rating (0 to 100 scale, 0 no effect, 100 complete control). Summed up:
as §1

The subject of test [9] is giant foxtail (Setaria faberii). The experiment in a line: Test A postemergence. The note with it: Setaria faberi, post-emergence, 240 h, 125 g ai/ha, postemergence, visual injury rating after approximately 10 d; read-out: Foxtail, Giant plant response rating (0 to 100 scale, 0 no effect, 100 complete control). Summed up:
as §1

The subject of test [10] is pigweed (Amaranthus retroflexus). Briefly: Test A postemergence. The conditions noted are these: Amaranthus retroflexus, post-emergence, 240 h, 125 g ai/ha, postemergence, visual injury rating after approximately 10 d; read-out: Pigweed plant response rating (0 to 100 scale, 0 no effect, 100 complete control). Summed up:
as §1

In test [11] the test system is ragweed (common ragweed, Ambrosia elatior). The experiment in a line: Test A postemergence. The conditions noted are these: Ambrosia artemisiifolia, post-emergence, 240 h, 125 g ai/ha, postemergence, visual injury rating after approximately 10 d; read-out: Ragweed plant response rating (0 to 100 scale, 0 no effect, 100 complete control). Summed up:
as §1

Test [12] concerns ryegrass, Italian (Italian ryegrass, Lolium multiflorum). Briefly: Test A postemergence. The conditions noted are these: Lolium multiflorum, post-emergence, 240 h, 125 g ai/ha, postemergence, visual injury rating after approximately 10 d; read-out: Ryegrass, Italian plant response rating (0 to 100 scale, 0 no effect, 100 complete control). Summed up:
as §1

Test [13] relates to wheat (Triticum aestivum). Briefly: Test A postemergence. The conditions noted are these: Triticum aestivum, post-emergence, 240 h, 125 g ai/ha, postemergence, visual injury rating after approximately 10 d; read-out: Wheat plant response rating (0 to 100 scale, 0 no effect, 100 complete control). Summed up: as §1

SMILES strings stand for the structures.

Regarding `Cc1cc(F)cc([C@H]2CN(C)C(=O)[C@@H]2C(=O)Nc2cccc(F)c2F)c1` [Compound 849], the pest or weed control at 125 g/ha with Kochia (Kochia scoparia) was 80%; in [1] it was 90%; in test [2] it was 90%; in [3], 40%; in test [4], 80%; in [5], 80%. In addition, the pest or weed control at 125 g/ha was determined as 60% in test [6]; 90% in test [7]; 30% in test [8]; 90% in [9]; 0% in [10]; 0% in test [11]. The pest or weed control at 125 g/ha in test [12] came out at 0%. The pest or weed control at 500 g/ha with Kochia (Kochia scoparia) was 80%; in [1], 90%; in test [2] it was 90%; in test [3] it was 50%; in test [4], 90%; in test [5] it was 90%. Further, the plant injury at 125 g/ha with corn (Zea mays) was determined as 70%; in test [13], 30%.
In the case of `CC(C)c1cccc([C@H]2CN(C)C(=O)[C@@H]2C(=O)Nc2ccccc2F)c1` [Compound 819], the pest or weed control at 125 g/ha in the test with Kochia (Kochia scoparia) worked out at 70%; in [1], 90%; in test [2], 100%; in [3], 30%; in test [4] it was 0%; in [5], 80%. Also, the pest or weed control at 125 g/ha in test [6] amounted to 50%; in test [7], 100%; in [8], 60%; in test [9], 90%; in test [10], 30%; in test [11] it was 0%. Further, the pest or weed control at 125 g/ha in test [12] is 70%. The pest or weed control at 500 g/ha worked out at 100% in the test on Kochia (Kochia scoparia); 100% in [1]; 100% in test [2]; 30% in [3]; 20% in test [4]; 100% in [5]. Also, the plant injury at 125 g/ha with corn (Zea mays) came to 40%; in [13], 30%.
